ChEMBL document CHEMBL4052641 (Eur J Med Chem, 2017)

Tests used:
[1] = molecular target: T1, Xanthine dehydrogenase/oxidase (Homo sapiens, UniProt P47989); assay: Inhibition of xanthine oxidase (unknown origin) assessed as reduction in uric acid formation using xanthine as substrate after 4 mins by UV-Vis spectrophotometric assay
[2] = molecular target: T1, Xanthine dehydrogenase/oxidase; assay: Potency index, ratio of allopurinol IC50 to compound IC50 for xanthine oxidase (unknown origin)
[3] = Potency index, ratio of allopurinol IC50 to compound IC50 for butter milk xanthine oxidase (unknown origin)
[4] = Inhibition of butter milk xanthine oxidase (unknown origin) assessed as reduction in uric acid formation using xanthine as substrate by UV-Vis spectrophotometric assay
[5] = Potency index, ratio of quercetin IC50 to compound IC50 for butter milk xanthine oxidase (unknown origin)
[6] = Inhibition of butter milk xanthine oxidase (unknown origin) assessed as reduction in uric acid formation using xanthine as substrate by spectrophotometric assay
[7] = molecular target: T2, Xanthine dehydrogenase/oxidase (Bos taurus, UniProt P80457); assay: Inhibition of bovine milk xanthine oxidase assessed using xanthine as substrate after 10 mins by fluorometric assay
T2 sequence (P80457 whole entry): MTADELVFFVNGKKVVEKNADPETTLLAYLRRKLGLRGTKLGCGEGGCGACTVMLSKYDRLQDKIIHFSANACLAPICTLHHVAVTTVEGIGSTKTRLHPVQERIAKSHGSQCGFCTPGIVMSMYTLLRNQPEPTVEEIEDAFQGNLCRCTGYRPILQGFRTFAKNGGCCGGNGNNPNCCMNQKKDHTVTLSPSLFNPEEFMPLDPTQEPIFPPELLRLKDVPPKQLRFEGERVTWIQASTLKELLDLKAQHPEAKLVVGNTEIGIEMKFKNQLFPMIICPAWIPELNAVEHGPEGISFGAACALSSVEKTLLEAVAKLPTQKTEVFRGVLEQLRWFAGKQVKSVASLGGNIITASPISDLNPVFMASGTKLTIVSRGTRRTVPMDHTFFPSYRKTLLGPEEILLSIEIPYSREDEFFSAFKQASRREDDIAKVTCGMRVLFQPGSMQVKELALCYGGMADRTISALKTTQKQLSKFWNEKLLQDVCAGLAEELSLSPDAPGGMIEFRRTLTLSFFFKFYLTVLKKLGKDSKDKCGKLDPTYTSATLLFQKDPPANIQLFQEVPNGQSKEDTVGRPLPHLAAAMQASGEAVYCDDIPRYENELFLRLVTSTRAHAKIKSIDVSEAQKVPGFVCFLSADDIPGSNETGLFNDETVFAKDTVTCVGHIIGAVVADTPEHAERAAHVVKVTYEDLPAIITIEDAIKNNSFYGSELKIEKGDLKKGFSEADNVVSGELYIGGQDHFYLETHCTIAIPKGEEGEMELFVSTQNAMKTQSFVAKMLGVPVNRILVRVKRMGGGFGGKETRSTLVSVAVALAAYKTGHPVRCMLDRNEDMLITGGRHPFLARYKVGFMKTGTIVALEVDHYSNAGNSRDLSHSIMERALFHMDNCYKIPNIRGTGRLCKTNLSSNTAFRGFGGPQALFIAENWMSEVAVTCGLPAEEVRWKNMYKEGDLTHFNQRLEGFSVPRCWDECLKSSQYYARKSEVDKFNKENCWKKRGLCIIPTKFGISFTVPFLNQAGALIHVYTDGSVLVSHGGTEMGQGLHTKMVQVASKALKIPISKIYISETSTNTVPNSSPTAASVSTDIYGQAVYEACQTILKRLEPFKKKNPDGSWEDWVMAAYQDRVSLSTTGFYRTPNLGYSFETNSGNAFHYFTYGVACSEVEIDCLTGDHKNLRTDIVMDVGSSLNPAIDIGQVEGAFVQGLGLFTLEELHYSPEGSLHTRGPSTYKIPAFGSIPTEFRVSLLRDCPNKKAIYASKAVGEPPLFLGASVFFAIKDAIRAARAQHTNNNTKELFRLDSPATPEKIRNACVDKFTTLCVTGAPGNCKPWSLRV

[8] = molecular target: T2, Xanthine dehydrogenase/oxidase; assay: Potency index, ratio of allopurinol IC50 to compound IC50 for bovine milk xanthine oxidase; conditions: cattle
[9] = molecular target: T1, Xanthine dehydrogenase/oxidase; assay: Inhibition of xanthine oxidase (unknown origin) using xanthine as substrate measured at every 1 mins up to 5 mins
[10] = molecular target: T2, Xanthine dehydrogenase/oxidase; assay: Inhibition of bovine milk xanthine oxidase assessed as reduction in uric acid formation using xanthine as substrate preincubated for 5 mins followed by substrate addition by UV-Vis spectrophotometric assay
[11] = molecular target: T2, Xanthine dehydrogenase/oxidase; assay: Inhibition of bovine milk xanthine oxidase assessed as reduction in uric acid formation using xanthine as substrate preincubated for 3 hrs followed by substrate addition by UV-Vis spectrophotometric assay
[12] = molecular target: T2, Xanthine dehydrogenase/oxidase; assay: Potency index, ratio of apigenin IC50 to compound IC50 for bovine milk xanthine oxidase; conditions: cattle
[13] = molecular target: T2, Xanthine dehydrogenase/oxidase; assay: Inhibition of bovine milk xanthine oxidase assessed as reduction in uric acid formation using xanthine as substrate preincubated for 3 hrs followed by substrate addition measured after 1 min by UV spectrophotometric assay
[14] = molecular target: T1, Xanthine dehydrogenase/oxidase; assay: Non-competitive inhibition of human xanthine oxidase
[15] = Inhibition of butter milk xanthine oxidase (unknown origin) assessed as reduction in uric acid formation using xanthine as substrate by double beam spectrophotometric assay
[16] = molecular target: T1, Xanthine dehydrogenase/oxidase; assay: Inhibition of xanthine oxidase (unknown origin) assessed as reduction in uric acid formation using xanthine as substrate after 10 mins
[17] = molecular target: T1, Xanthine dehydrogenase/oxidase; assay: Inhibition of xanthine oxidase (unknown origin) assessed as reduction in uric acid formation using xanthine as substrate after 30 mins by UV-Vis spectrophotometric assay
[18] = molecular target: T2, Xanthine dehydrogenase/oxidase; assay: Competitive inhibition of bovine milk xanthine oxidoreductase assessed as reduction in uric acid formation by spectrophotometric assay

T1 sequence (P47989 whole entry): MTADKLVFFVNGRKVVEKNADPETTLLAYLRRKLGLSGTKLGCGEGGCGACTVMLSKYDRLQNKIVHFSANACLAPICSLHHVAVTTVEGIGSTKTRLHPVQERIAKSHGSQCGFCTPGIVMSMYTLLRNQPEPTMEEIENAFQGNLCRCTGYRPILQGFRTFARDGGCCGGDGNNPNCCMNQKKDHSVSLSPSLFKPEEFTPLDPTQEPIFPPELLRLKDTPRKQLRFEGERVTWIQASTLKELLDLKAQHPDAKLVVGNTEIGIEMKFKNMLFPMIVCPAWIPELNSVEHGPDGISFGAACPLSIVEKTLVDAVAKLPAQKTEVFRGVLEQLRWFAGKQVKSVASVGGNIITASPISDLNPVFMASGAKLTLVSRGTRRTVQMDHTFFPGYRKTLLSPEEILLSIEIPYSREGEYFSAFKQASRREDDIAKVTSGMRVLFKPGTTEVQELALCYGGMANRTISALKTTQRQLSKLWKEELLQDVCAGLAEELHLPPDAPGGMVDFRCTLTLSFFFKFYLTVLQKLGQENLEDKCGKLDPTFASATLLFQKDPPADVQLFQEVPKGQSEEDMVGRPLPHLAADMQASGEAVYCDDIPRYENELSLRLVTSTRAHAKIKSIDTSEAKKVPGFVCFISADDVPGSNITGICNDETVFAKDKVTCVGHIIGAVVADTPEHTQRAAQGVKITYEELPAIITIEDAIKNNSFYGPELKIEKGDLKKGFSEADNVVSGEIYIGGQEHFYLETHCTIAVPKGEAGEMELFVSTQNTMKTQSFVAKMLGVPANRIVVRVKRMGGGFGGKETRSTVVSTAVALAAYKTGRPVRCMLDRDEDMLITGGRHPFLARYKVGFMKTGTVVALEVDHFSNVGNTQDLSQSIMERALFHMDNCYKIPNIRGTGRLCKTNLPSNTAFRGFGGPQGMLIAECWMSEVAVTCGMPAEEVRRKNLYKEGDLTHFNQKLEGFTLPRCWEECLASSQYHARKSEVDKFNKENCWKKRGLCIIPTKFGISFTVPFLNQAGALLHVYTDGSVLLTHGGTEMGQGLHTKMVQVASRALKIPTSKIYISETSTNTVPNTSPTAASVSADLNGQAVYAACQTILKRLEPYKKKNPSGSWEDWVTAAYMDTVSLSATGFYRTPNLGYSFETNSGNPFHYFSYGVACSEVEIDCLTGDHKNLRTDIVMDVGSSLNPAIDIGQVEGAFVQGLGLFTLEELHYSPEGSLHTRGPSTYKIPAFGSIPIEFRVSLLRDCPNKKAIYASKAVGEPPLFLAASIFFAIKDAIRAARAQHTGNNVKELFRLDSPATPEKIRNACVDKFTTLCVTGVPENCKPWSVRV

With C=CCc1ccc(O)c(O)c1 [HYDROXYCHAVICOL] the IC50 [1] was 16700 nM and the “Ratio IC50” value [2] was 1.84.
Compound CCCCCCOC(=O)C(=O)Nc1[nH]cnc1C(N)=O has a Ratio IC50 [3] of 3.78 and an IC50 [4] of 1110 nM.
Work on O=C(/C=C/c1ccc2c(c1)O[C@@H](c1ccc(O)c(O)c1)[C@@H](C(=O)O)O2)O/C=C\c1ccc(O)c(O)c1 yielded a Ratio IC50 [5] of 1.02 and an IC50 [6] of 5200 to 28200 nM.
COCCCCSc1nc2[nH]cnc2c(=O)[nH]1 showed a Ratio IC50 [3] of 150 and an IC50 [4] of 28 nM.
O=c1cc(-c2ccc(-c3ccccc3)cc2)oc2cc(O)cc(O)c12 showed a Ratio IC50 [5] of 28.2 and an IC50 [6] of 13.6 nM.
In the case of O=c1cc(-c2ccc(O)c(O)c2)oc2cc(O)cc(O)c12 [LUTEOLIN], the IC50 [7] is reported as 10200 nM and the “Ratio IC50” value [8] is reported as 25.32.
For CC(C)=CCc1cc(C(=O)/C=C/c2ccc(O)c(O)c2)c(O)cc1O [BROUSSOCHALCONE A], the “Ratio IC50” value [2] was 3.33 and the IC50 [9] was 600 nM.
In the case of O=C(/C=C/c1ccc2c(c1)O[C@H](C(=O)O)[C@H](c1ccc(O)c(O)c1)O2)O/C=C\c1ccc(O)c(O)c1, the Ratio IC50 [5] is reported as 8.83 and the IC50 [6] is reported as 600 to 1100 nM.
Compound CCCCSc1nc(O)c2[nH]cnc2n1 has a Ratio IC50 [3] of 1.08 and an IC50 [4] of 3880 nM.
For O=c1cc(-c2cccnc2)[nH]c2ccccc12, the IC50 [10] was 6240 nM and the “Ratio IC50” value [8] was 1.33.
With O=c1cc(-c2ccccc2)oc2cc(O)cc(O)c12 [CHRYSIN] the IC50 [11] was 1260 nM, the “Ratio IC50” value [12] was 2.83 and the “Ratio IC50” value [8] was 2.33.
With O=c1nc(-c2ccncc2)cc(-c2cccs2)[nH]1 the IC50 [10] was 6450 nM and the “Ratio IC50” value [8] was 1.9.
In the case of O=c1cc(-c2ccccc2)oc2cc(O)c(O)c(O)c12 [BAICALEIN], the IC50 [7] is reported as 71500 nM and the “Ratio IC50” value [8] is reported as 3.61.
With O=c1c(-c2ccc(O)cc2)coc2cc(O)cc(O)c12 [GENISTEIN] the IC50 [13] was 1730 nM and the “Ratio IC50” value [8] was 2.04.
Cc1nc(-c2ccc(OCC(C)C)c(C#N)c2)sc1C(=O)O [FEBUXOSTAT] showed a Ki [14] of 0.1 nM.
With O=c1c(O)c(-c2ccc(O)c(O)c2)oc2cc(O)cc(O)c12 [QUERCETIN] the IC50 [6] was 383 nM and the IC50 [15] was 400 nM.
In the case of CCOCCCSc1nc2[nH]cnc2c(=O)[nH]1, the Ratio IC50 [3] is reported as 72.4 and the IC50 [4] is reported as 58 nM.
Work on COc1ccc(-c2cc(=O)c3c(O)cc(O)cc3o2)cc1 [ACACETIN] yielded a Ratio IC50 [5] of 1.74 and an IC50 [6] of 220 nM.
For CCCCCCSc1nc2c(=O)[nH]cnc2[nH]1, the Ratio IC50 [3] was 7.5 and the IC50 [4] was 560 nM.
For C=CCc1cc(O)c(O)cc1C(C=C)c1ccc(O)c(O)c1 (stereo not drawn), the “Ratio IC50” value [2] was 25.21 and the IC50 [9] was 280 nM.
In the case of Oc1nc(-c2ccccc2)cc(-c2ccccc2)n1, the IC50 [10] is reported as 10200 nM and the “Ratio IC50” value [8] is reported as 1.2.
With CCCCCOC(=O)C(=O)Nc1[nH]cnc1C(N)=O the Ratio IC50 [3] was 2.19 and the IC50 [4] was 1920 nM.
With CC1(C)C=Cc2cc(C(=O)/C=C/c3ccc(O)c(O)c3)c(O)cc2O1 the “Ratio IC50” value [2] was 1.11 and the IC50 [9] was 1800 nM.
For O=C1CC(c2ccc(O)c(-c3c(O)cc(O)c4c3OC(c3ccc(O)cc3)CC4=O)c2)Oc2cc(O)cc(O)c21 (stereo not drawn), the “Ratio IC50” value [2] was 1.09 and the IC50 [16] was 92 nM.
Work on CCCCCCSc1nc2c(=O)[nH]c(O)nc2[nH]1 yielded a Ratio IC50 [3] of 6.36 and an IC50 [4] of 660 nM.
Compound CC(C)(C)c1ccc(-c2cc(=O)c3c(O)cc(O)cc3o2)cc1 has a Ratio IC50 [5] of 4.22 and an IC50 [6] of 90.8 nM.
For O=c1cc(-c2ccc(O)cc2)oc2cc(O)cc(O)c12 [APIGENIN], the IC50 [11] was 3570 nM.
Work on Oc1ncnc2[nH]ncc12 [ALLOPURINOL] yielded an IC50 [6] of 5300 nM.
In the case of O=c1nc(-c2ccncc2)cc(-c2cccc3ccccc23)[nH]1, the IC50 [10] is reported as 11200 nM and the “Ratio IC50” value [8] is reported as 1.09.
For CCCOCCSc1nc2[nH]cnc2c(=O)[nH]1, the Ratio IC50 [3] was 6.27 and the IC50 [4] was 670 nM.
In the case of O=c1nc(-c2ccc(Cl)cc2)cc(-c2ccc(Cl)cc2)[nH]1, the IC50 [10] is reported as 12000 nM and the “Ratio IC50” value [8] is reported as 1.02.
In the case of O=[N+]([O-])c1cccc(C2Nc3ccccc3-c3cc(-c4ccccc4)nn32)c1 (stereo not drawn), the “Ratio IC50” value [2] is reported as 1.51 and the IC50 [17] is reported as 20900 nM.
For N#Cc1cc(-c2n[nH]c(-c3ccncc3)n2)ccn1 [TOPIROXOSTAT], the Ki [18] was 5.7 nM.
Compound O=C(/C=C/c1ccc2c(c1)O[C@H](c1ccc(O)c(O)c1)[C@@H](C(=O)O)O2)O/C=C\c1ccc(O)c(O)c1 has a Ratio IC50 [5] of 2.65 and an IC50 [6] of 2000 to 4220 nM.
In the case of Oc1c(Cl)cc(Cl)cc1C1Nc2ccccc2-c2cc(-c3ccccc3)nn21 (stereo not drawn), the “Ratio IC50” value [2] is reported as 2.89 and the IC50 [17] is reported as 11000 nM.
Work on O=c1oc2c(O)ccc(-c3oc4cc(O)cc(O)c4c(=O)c3O)c2s1 yielded a Ratio IC50 [5] of 8 and an IC50 [15] of 50 nM.
With O=c1nc(-c2ccncc2)cc(-c2ccco2)[nH]1 the IC50 [10] was 7230 nM and the “Ratio IC50” value [8] was 1.69.
In the case of O=c1cc(-c2ccc(-c3ccccc3)cc2)oc2cc(O)ccc12, the Ratio IC50 [5] is reported as 1.1 to 1.74 and the IC50 [6] is reported as 347 nM.
